Experimental data as given in patent publication US6136845A (The Texas A&M University System, priority 1998, dated 2000).

Assays:
Ah receptor = settings: result in words; cited from earlier work
uterine cytosolic PR = assay: Uterine cytosolic PR levels in ovariectomized rats (Example 4); type: in vivo, Sprague-Dawley rat; settings: 0.4 mg/kg/day each oral, 20 days
Description: (§1) Rats were euthanized on day 21.

uterus [1] = assay: Uterine wet weight in ovariectomized rats (Example 4); type: in vivo, Sprague-Dawley rat; settings: 0.4 mg/kg/day each oral, 20 days
Description: (§3) Methods: Rats were ovariectomized at 97 days of age, and treatments began at 117 days of age. […] Rats were euthanized on day 21.

uterine peroxidase [2] = assay: Uterine peroxidase activity in ovariectomized rats (Example 6, Table 6); type: in vivo, Sprague-Dawley rat; settings: tamoxifen 0.4, 6-MCDF 0.8 mg/kg/day oral, 20 days
Description: as §1

CYP1A1 [3] = settings: result in words; cited from earlier work
[4] = Body and organ weights in DMBA-treated rats
Method: (§2) Female virgin Sprague-Dawley rats were obtained from Harlan (Houston) and were allowed to acclimate for 10 days, allowed access to food and water ad libitum, and maintained on a 12 h light/dark schedule. Mammary tumors were induced in 50±3 day old-rats by administering a single gavage dose of 20 mg DMBA in 0.5 ml corn oil. […] Tumor sizes were measured with calipers, and volumes were calculated by formula (length×width×depth)/6π and are expressed as percent control. One week after their last injection, rats were euthanized by asphyxiation. All tumors were removed, weighed, and sectioned. One portion was frozen in liquid nitrogen for PCR analysis; one portion was placed in 10% formalin for histopathological analysis; and the majority was immediately homogenized for the preparation of microsomal and cytosolic fractions. Livers were perfused and weighed, and cytosol and microsomes were prepared as previously described.

[5] = cited from earlier work
[6] = Body and organ weights (Examples 4 and 5)
Method: as §3
For the control vehicle and the MCDF vehicle ethanol was added (5% v/v) and then evaporated away.

[7] = tested on: uterine progesterone receptor; assay: Uterine progesterone receptor in ovariectomized rats (Example 6, Table 6); type: in vivo, Sprague-Dawley rat; settings: tamoxifen 0.4, 6-MCDF 0.8 mg/kg/day oral, 20 days
Description: as §1

liver = settings: result in words; cited from earlier work
[8] = tested on: hepatic CYP1A1-dependent EROD activity; assay: Hepatic EROD activity in DMBA-treated rats; settings: 0.4 mg/kg/day each
Method: as §2

uterus [9] = assay: Uterine wet weight in ovariectomized rats (Example 6, Table 6); type: in vivo, Sprague-Dawley rat; settings: tamoxifen 0.4, 6-MCDF 0.8 mg/kg/day oral, 20 days
Description: as §1

mammary tumors = assay: DMBA-induced rat mammary tumor model, tumor volume and weight; type: in vivo, Sprague-Dawley rat; settings: 20 days
Method: as §2, with “One week after their last injection, rats were euthanized by asphyxiation.” left out

uterine peroxidase [10] = assay: Uterine peroxidase assay in ovariectomized rats (Example 4); type: in vivo, Sprague-Dawley rat; settings: 0.4 mg/kg/day each oral, 20 days
Description: as §1

CYP1A1 [11] = settings: cited from earlier work
[12] = Body and organ weights (Example 6, Table 7)
Method: For Table 7 and FIGS. 3 and 3B, exact aged virgin female Sprague-Dawley rats were dosed on day 55 in the afternoon with 20 mg/rat 7,12-dimethylbenz[a]anthacene in a volume of 0.5 ml/rat corn oil (rats weigh approximately 165 g, resulting in 120 mg/kg DMBA and 3 ml/kg corn oil).

mammary tumor = settings: cited from earlier work
femurs = assay: Bone effects in ovariectomized rats (femur weight and length); type: in vivo, Sprague-Dawley rat; settings: tamoxifen 0.4, 6-MCDF 0.8 mg/kg/day oral, 20 days
Method: The ovariectomized rat is used as a model for osteoporosis.
Rats were euthanized on day 21. After uteri were excised and processed, both left and right femurs were excised and the length measured with calipers. […] Wet weight was measured after residual connective tissue was stripped away. Dry weight was measured after the bones were dried for 12 ours at 130° C.

ER = settings: 21 to 25 day-old female Sprague-Dawley rat uterus; cited from earlier work
PR = settings: 21 to 25 day-old female Sprague-Dawley rat uterus; cited from earlier work
rat uterus = settings: cited from earlier work
[13] = each drug 0.4 mg/kg/day by gavage, DMBA rats

Cc1cc(Cl)cc2c1oc1cc(Cl)cc(Cl)c12 [6-MCDF, 6-methyl-1,3,8-trichlorodibenzofuran]
binding to the Ah receptor (Ah receptor): bound to the Ah receptor | Uterine cytosolic PR levels (fmol/mg protein) (uterine cytosolic PR; control 308 ± 142): 338 ± 31 fmol/mg protein | Uterine cytosolic PR levels (fmol/uterus) (uterine cytosolic PR; control 1100 ± 508): 1925 ± 177 fmol/uterus | Uterine cytosolic PR levels (fmol/g uterus) (uterine cytosolic PR; control 8368 ± 3868): 10693 ± 986 fmol/g uterus | Uterine Wet Weight (% body wt) (uterus [1]; control 0.045 ± 0.002): 0.060 ± 0.006 % body wt | Uterine Wet Weight (uterus [1]; control 0.131 ± 0.006): 0.180 ± 0.019 g | Uterine Peroxidase Activity (Absorbance/g uterus) (uterine peroxidase [2]; per g uterus): 0.88 ± 0.01 Fold Increase over control | Uterine Peroxidase Activity (Absorbance/mg protein) (uterine peroxidase [2]; per mg protein): 0.99 ± 0.01 Fold Increase over control | Uterine Peroxidase Activity (Absorbance/uterus) (uterine peroxidase [2]; per uterus): 0.57 ± 0.01 Fold Increase over control | induction of hepatic CYP1A1-dependent activity (CYP1A1 [3]): not accompanied by any significant changes | Uterine Wt. ([4]; 0.4 mg/kg/day each, 20 days, control 0.212 ± 0.017): 0.230 ± 0.037 % BW | Spleen Wt. ([4]; 0.4 mg/kg/day each, 20 days, control 0.257 ± .022): 0.255 ± 0.017 % BW | Kidney weight ([4]; 0.4 mg/kg/day each, 20 days, control 0.349 ± 0.007): 0.361 ± 0.016 % BW | Liver weight ([4]; 0.4 mg/kg/day each, 20 days, control 3.13 ± 0.12): 3.49 ± 0.16 % BW | Final Body Weight ([4]; 0.4 mg/kg/day each, 20 days, control 250 ± 5): 247 ± 4 g | Heart weight ([4]; rat, in vivo): 0.405 ± 0.10 % BW | effect on TCDD induced toxic responses ([5]; co-treatment with TCDD): inhibiter TCDD induced toxic responses | toxicity ([5]; result in words): minimal toxicity | splenic wet weight ([6]; 0.4 mg/kg/day oral, 20 days, ovariectomized rats, result in words): slight but significant increase | Rat weight at start of treatments ([6]; Table 5, baseline, control 273.1 ± 8.1): 274.7 ± 7.0 g | Spleen wet weight (% body wt) ([6]; Table 5, control 0.247 ± 0.007): 0.298 ± 0.015 % body wt | kidney weight (% body wt) ([6]; Table 5, control 0.318 ± 0.010): 0.332 ± .004 % body wt | Heart weight (% body wt) ([6]; Table 5, control 0.319 ± 0.006): 0.344 ± 0.014 % body wt | Spleen wet weight ([6]; Table 5, control 0.72O ± 0.012): 0.887 ± 0.043 g | Kidney weight ([6]; Table 5, control 0.933 ± 0.038): 0.991 ± 0.026 g | Heart weight ([6]; Table 5, control 0.935 ± 0.039): 1.024 ± 0.037 g | Liver weight (% body wt) ([6]; Table 5, control 4.06 ± 0.23): 4.37 ± 0.26 % body wt | Liver weight ([6]; Table 5, control 11.88 ± 0.78): 13.04 ± 0.87 g | Rat weight prior to euthanasia ([6]; Table 5, control 293.2 ± 10.9): 298.3 ± 5.0 g | Uterine Progesterone Receptor (fmol/mg protein) ([7]; control 198 ± 15): 152.9 ± 35 fmol/mg protein | Uterine Progesterone Receptor (fmol/uterus) ([7]; control 765 ± 69): 441.5 ± 100 fmol/uterus | Uterine Progesterone Receptor (fmol/g uterus) ([7]; control 4462 ± 343): 3985 ± 907 fmol/g uterus | liver morphology (liver): not accompanied by any significant changes | liver/body weight ratios (liver): not accompanied by any significant changes | EROD activity ([8]; 20 days, control 118 ± 40): 140 ± 32 pmol/mg/min | induction of hepatic EROD activity ([8]; result in words): did not induce | Uterine wet weight (% body weight) (uterus [9]; control 0.0583 ± 0.0055): 0.0454 % body weight | Uterine wet weight (uterus [9]; control 0.171 ± 0.15): 0.131 g | Tumor Weight (mammary tumors; 0.4 mg/kg/day each, control 3.82 ± 1.18): 1.68 ± 0.53 g | Tumor Wt (% Control) (mammary tumors; 0.4 mg/kg/day each, control 100 ± 27.7): 43.9 ± 12.8 % Control | Final Tumor Volume (% Control) (mammary tumors; 0.4 mg/kg/day each, control 100 ± 31.5): 33.6 ± 11.2 % Control | Final Tumor Volume (mammary tumors; 0.4 mg/kg/day each, control 2734 ± 956): 918 ± 305 mm^3 | % Inhibition tumor volume (mammary tumors; [13]): 66.4% | % Inhibition tumor weight (mammary tumors; [13]): NS decrease | Uterine Peroxidase Assay (Abs/g uterus) (uterine peroxidase [10]; per g uterus): 1.14 ± 0.02 Fold Increase over Control | Uterine Peroxidase Assay (Abs/mg protein) (uterine peroxidase [10]; per mg protein): 1.05 ± 0.02 Fold Increase over Control | Uterine Peroxidase Assay (Abs/uterus) (uterine peroxidase [10]; per uterus): 1.56 ± 0.03 Fold Increase over Control | potency as inducer of hepatic CYP1A1 relative to TCDD (times less potent) (CYP1A1 [11]; less potent than TCDD, same animals): > 157,000 times | induction of CYP1A1 (CYP1A1 [11]; result in words): weak inducer of CYP1A1 | Rat weight at start of treatments ([12]; Table 7, baseline, control 255 ± 3): 257 ± 4 g | Spleen weight (% body weight) ([12]; Table 7, control 0.289 ± 0.018): 0.265 ± 0.014 % body weight | Kidney weight (% body weight) ([12]; Table 7, control 0.334 ± 0.010): 0.352 ± 0.015 % body weight | Heart weight (% body weight) ([12]; Table 7, control 0.360 ± 0.010): 0.356 ± 0.012 % body weight | Rat weight prior to euthanasia ([12]; Table 7, control 295 ± 11): 289 ± 7 g | growth inhibition (mammary tumor; 5 mg/kg/wk): > 50% | mammary tumor growth (mammary tumor; 5, 10 or 25 mg/kg/wk, result in words): significantly inhibited | Dry bone weight (femurs; control 0.180 ± 0.005): 0.183 ± 0.003 % body weight | Wet bone weight (femurs; control 0.347 ± 0.009): 0.341 ± 0.008 % body weight | Bone length index (femurs; control 12.1 ± 0.4): 12.17 ± 0.3 mm/body weight × 100 | nuclear and cytosolic ER binding (ER): dose-dependent decrease | nuclear and cytosolic progesterone receptor (PR) binding (PR): dose-dependent decrease | E2-induced hypertrophy, peroxidase activity, cytosolic ER and PR binding, EGF receptor and c-fos mRNA levels (rat uterus; rat uterus): inhibited | effect on TCDD-induced antiestrogenic activity (rat uterus; rat uterus): did not inhibit | antiestrogenicity in the rat uterus (rat uterus; result in words): antiestrogen in the rat uterus
